Paper PMC12156033, “N-Alkylamino Stilbene Compounds as Amyloid β Inhibitors for Alzheimer’s Disease Research” (Molecules, 2025)
Entries after “also recorded” stand apart in the source; their conditions may differ.

Legend:
[1] = Fluorescence spectra of the compounds alone in PBS; assay type: physicochemical; details: excitation 380 nm; compound 5.0 µM in PBS
Method: (§1) All fluorescence measurements were performed using a SpectraMax M2e plate reader (Molecular Devices, San Jose, CA, USA). The fluorescence spectra of the compounds’ solution (100 μL PBS, 5.0 µM) were recorded with excitation at 380 nm and an emission wavelength from 400 to 680 nm. To PBS solutions (100 μL) of the compounds (5.0 µM), various Aβ42 species were added, with final concentrations of 5.0 µM and 25.0 µM, and their fluorescence spectra (λmax of emission) were determined as described above.

[2] = target: T1, Aβ42 fibrils (Homo sapiens, UniProt P05067); assay: Fluorescence spectra of compounds with Aβ42 fibrils; assay type: binding; details: excitation 380 nm; compound 5.0 µM in PBS with Aβ fibrils
T1 construct: commercial Aβ42 peptide (AnaSpec or GL Biochem); purchased AnaSpec or GL Biochem
T1 sequence (P05067 672-713 limits assumed): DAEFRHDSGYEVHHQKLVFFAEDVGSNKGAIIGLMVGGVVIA
Method: as §1
(§2) Aβ42 powder was prepared by dissolving commercial Aβ42 peptide (AnaSpec or GL Biochem) in ammonium hydroxide solution (1%, v/v). The solution was then aliquoted out and lyophilized overnight. The resulting aliquoted powder was stored at −80 °C. Aβ42 monomers were generated by dissolving Aβ42 powder in 1,1,1,3,3,3-hexafluoro-2-propanol (HFIP, 1 mM) and incubating for 1 h at room temperature. The solution was then evaporated overnight and dried by vacuum centrifuge to result in monomeric films. Aβ42 fibrils were generated by dissolving the monomeric Aβ42 films in DMSO, diluting into the appropriate buffer, and incubating for 24 h at 37 °C with continuous agitation (final DMSO concentration was <2%). For the preparation of Aβ42 oligomers, the peptides were suspended in PBS buffer and incubated overnight at 4 °C.

[3] = target: T2, soluble Aβ42 aggregates (sAβ) (Homo sapiens, UniProt P05067); assay: Fluorescence spectra of compounds with soluble Aβ42 aggregates; assay type: binding; details: excitation 380 nm; compound 5.0 µM in PBS with soluble Aβ aggregates
T2 construct: commercial Aβ42 peptide (AnaSpec or GL Biochem); purchased AnaSpec or GL Biochem
T2 sequence (P05067 672-713 limits assumed): as above
Method: as §1, §2

[4] = target: T3, amyloid plaques in 5xFAD mice brain sections (Homo sapiens, UniProt P05067); assay: Histological staining of 5xFAD mice brain sections, colocalization with HJ3.4 antibody; assay type: binding, mouse; details: 11-month-old 5xFAD mice brain sections, compound 25 μM, HJ3.4 1 μg/mL
T3 construct: the amyloid beta (Aβ) peptide that makes up amyloid plaques; tissue Jackson Laboratories; host or cells: brain sections from 11-month-old 5xFAD transgenic mice (Tg6799 line)
T3 sequence (P05067 672-713 limits assumed): as above
From the text: To further investigate the affinity of the developed compounds toward various Aβ aggregates in situ, the intrinsic fluorescence properties of the compounds were employed for their ability to stain insoluble amyloid plaques. For these studies, brain sections from 11-month-old 5xFAD transgenic mice, which rapidly develop severe amyloid pathology, were co-stained with stilbenes and HJ3.4 antibody. HJ3.4 is an anti-amyloid antibody that binds to the N-terminal region of the Aβ peptide, thereby targeting both soluble and insoluble amyloid species. To evaluate the Aβ binding specificity of the compounds in vitro, brain sections from 11-month-old 5xFAD mice were washed with PBS (3 × 5 min) and blocked with bovine serum albumin (2% w/v BSA in PBS, pH 7.4, 10 min). Then, the sections were incubated with 25 μM of multifunctional compounds and sequentially stained with HJ3.4 antibody (Professor David Holtzman, 1 μg/mL) for 30 min. The brain sections were treated with 2% w/v BSA-PBS again for 4 min to remove any compounds or antibodies that were non-specifically binding to the tissue. Finally, the sections were washed with PBS (3 × 2 min) and DI water (2 min) and mounted with non-fluorescent mounting media (Vectashield). Colocalization analysis and determination of Pearson’s correlation coefficient were performed with the imaging software Fiji (ImageJ 1.52p). Mouse brains were harvested in compliance with the Institutional Animal Care and Use Committee of the University of Illinois at Urbana-Champaign (IACUC protocol #22094).

[5] = Log D measurement octanol/PBS; assay type: physicochemical; details: octanol / PBS pH 7.4, 10 μM, triplicate, ± SD
Method: The determination of log D values for N-alkylamino multifunctional compounds was performed using a slightly modified reported procedure. The compounds (final concentration 10 μM) were added to the premix suspension containing 0.5 mL octanol and 0.5 mL octanol-saturated PBS buffer (pH = 7.4). The resulting mixture was stirred vigorously for 5 min and centrifuged at 2000 rpm for 5 min. The octanol layer was separated from the PBS layer, and the fluorescence spectrum was recorded. The remaining 0.5 mL PBS layer was partitioned with 0.5 mL PBS-saturated octanol, and the octanol layer was separated after 5 min of vigorous shaking and centrifuging. The fluorescence spectrum of the octanol layer was recorded. The log D value was calculated based on the fluorescence intensity ratio for the two octanol layers. Each experiment was completed in triplicate, and the error represents the standard deviation for the average log D values.

[6] = test system: Cu-Aβ42 cytotoxicity on N2a cells; assay: N2a cell rescue from Cu-induced Aβ42 cytotoxicity (Alamar blue); assay type: cell-based, mouse; details: [Aβ42] = [CuCl2] = 20 μM, compound 5 μM
Method: Mouse neuroblastoma Neuro2A (N2A) cell lines were purchased from the American Type Culture Collection (ATCC), Manassas, VA, USA. Cells were grown in DMEM/10% FBS, which is the regular growth media for N2A cells, in a humidified atmosphere with 5% CO2 at 37 °C. N2A cells were seeded in a clear 96-well plate (2.5 × 10^4/well) with DMEM/10% FBS. The media was changed to DMEM/N-2 media 24 h later. After 1 h, the treatment reagents were added. Owing to the poor solubility of compounds in the media, the final amount of DMSO used was 1% (v/v). After an additional incubation of 40 h, Alamar Blue solution was added to each well, and the cells were incubated for 90 min at 37 °C. Fluorescence intensity was measured at 590 nm (excitation wavelength = 560 nm).
The Alamar Blue assay was carried out as described, with the following treatment reagents: 20 μM Aβ42 species, 5 μM compounds, and 20 μM CuCl2.

Compound	Compound λem (λmax of emission) [1] [nm]	Compound+Fibrils λem (λmax of emission) [2] [nm]	Compound+sAβ λem (λmax of emission) [3] [nm]	Pearson's coefficient (R) of colocalization with AF594-HJ3.4 [4]	logD [5]	effect on Cu-stabilized Aβ42 / Aβ42-induced toxicity [6]
CNc1ccc(/C=C/c2ccc(O)c(CN3CCN(C)CCN(C)CC3)c2)cc1 [Compound L3, (E)-2-((4,7-dimethyl-1,4,7-triazonan-1-yl)methyl)-4-(4-(methylamino)styryl)phenol]	455	430	430	0.72	0.98 ± 0.01	–
CCN(CC)c1ccc(/C=C/c2cc(CN3CCN(C)CCN(C)CC3)c(O)c(OC)c2)cc1 [Compound L5, (E)-4-(4-(diethylamino)styryl)-2-((4,7-dimethyl-1,4,7-triazonan-1-yl)methyl)-6-methoxyphenol]	460	435	435	0.74	1.39 ± 0.01	rescue cells from Cu-Aβ42 cytotoxicity
COc1cc(/C=C/c2ccc(N(C)C)cc2)cc(CN2CCN(C)CCN(C)CC2)c1O [Compound L1, (E)-2-((4,7-dimethyl-1,4,7-triazonan-1-yl)methyl)-4-(4-(dimethylamino)styryl)-6-methoxyphenol]	455	455	455	0.67	1.33 ± 0.01	rescue cells from Cu-Aβ42 cytotoxicity

Continued, in another order:

Compound λem (λmax of emission) [1] [nm]	Compound+Fibrils λem (λmax of emission) [2] [nm]	Compound+sAβ λem (λmax of emission) [3] [nm]	Pearson's coefficient (R) of colocalization with AF594-HJ3.4 [4]	logD [5]	Compound	effect on Cu-stabilized Aβ42 / Aβ42-induced toxicity [6]
460	430	430	0.66	1.35 ± 0.02	COc1cc(/C=C/c2ccc(N3CCCCC3)cc2)cc(CN2CCN(C)CCN(C)CC2)c1O [Compound L7, (E)-2-((4,7-dimethyl-1,4,7-triazonan-1-yl)methyl)-6-methoxy-4-(4-(piperidin-1-yl)styryl)phenol]	–
455	430	430	0.70	1.37 ± 0.01	CCN(CC)c1ccc(/C=C/c2ccc(O)c(CN3CCN(C)CCN(C)CC3)c2)cc1 [Compound L6, (E)-4-(4-(diethylamino)styryl)-2-((4,7-dimethyl-1,4,7-triazonan-1-yl)methyl)phenol]	–
455	450	450	0.77	0.85 ± 0.01	COc1cc(/C=C/c2ccc(N3CCN(C)CC3)cc2)cc(CN2CCN(C)CCN(C)CC2)c1O [Compound L11, (E)-2-((4,7-dimethyl-1,4,7-triazonan-1-yl)methyl)-6-methoxy-4-(4-(4-methylpiperazin-1-yl)styryl)phenol]	inhibit both Cu-stabilized Aβ42- and Aβ42-induced toxicity; also recorded: rescue cells from Cu-Aβ42 cytotoxicity
